Usually EC50 stands for the concentration giving half of the maximal effect. Low readings indicate higher potency in that assay, high ones lower potency in that assay.

A short description of this experiment: Ability to induce shape change (polarization) in human polymorphonuclear leukocytes (PMN).
As to `CSCC[C@H](NC(=O)[C@H](CC(=O)O)NC(=O)[C@H](CCCCN)NC(=O)[C@H](Cc1ccccc1)NC(=O)[C@H](CO)NC(=O)[C@@H](N)Cc1ccc(O)cc1)C(=O)N1CCC[C@H]1C(=O)N[C@@H](CC(C)C)C(=O)NCC(=O)N[C@@H](CCCNC(=N)N)C(=O)O`, it took 5 µM to reach a half-maximal effect (EC50). Then `CC(C)C[C@H](NC(=O)[C@@H]1CCCN1C(=O)[C@H](C)NC(=O)[C@H](CC(=O)O)NC(=O)[C@H](CCCCN)NC(=O)[C@H](Cc1ccccc1)NC(=O)[C@H](CO)NC(=O)[C@@H](N)Cc1ccc(O)cc1)C(=O)NCC(=O)N[C@@H](CCCNC(=N)N)C(=O)O`, with 15.8 µM; and “H-YSFKDMQLGR-OH [Tyr-Ser-Phe-LyS-Asp-Met-Glu-Leu-Gly-Arg]”, with 37 µM; and H-YSFKDMQPGR-OH, with 22 µM. In the case of H-YSFKGLLLGR-OH, the EC50 stood at 0.3 µM.

The values above are taken from BindingDB's records for doi:10.1021/jm00018a028 (University of Nebraska Medical Center, 1995).
